Test results published in paper PMC3794980, “Identification of Conserved and HLA Promiscuous DENV3 T-Cell Epitopes” (PLoS Neglected Tropical Diseases, 2013).
Read-outs that look alike come from different tables or passages of the source. Where no end group is shown, it is not given here.

What was measured:
Test in all cases: biochemical
Type in all cases: binding
DRB1*0701 = DRB1*0701 (Homo sapiens, UniProt P01903+P01911, A100R/A102G/A103Q/D57E/D86V/E43K/F76Y/K127E/L162R/M171V/P40G/Q125H/Q99D/R33Q/R42Y/R54Q/S133A/S66F/T210M/V115G/Y107V/Y59L/Y89S)
DRB4*0101 = DRB4*0101 (Homo sapiens, UniProt P01903+P13762, G164S)
DRB1*1101 = DRB1*1101 (Homo sapiens, UniProt P01903+P01911, A100R/A169T/A87E/I96F/K41T/L162R/M171V/P40S/Q125H/Q178H/Q39Y/Q99D/R42S/S66Y/T262R/V115G/W38E)
DRB1*1302 = DRB1*1302 (Homo sapiens, UniProt P01903+P01911, A100E/A169T/K41T/L162R/M171V/P40S/Q125H/Q178H/Q39Y/Q99D/R42S/S66N/T262R/V115G/W38E/Y61H); settings: competitive inhibition of radiolabeled standard peptide, read-out: Binding Affinity (nM) DRB1*1302
DRB3*0101 = DRB3*0101 (Homo sapiens, UniProt P01903+P79483)
DRB1*0301 = DRB1*0301 (Homo sapiens, UniProt P01903+P01911, A100K/A102G/A103R/A169T/F55Y/I96L/K41T/L162R/M171V/P40S/Q125H/Q178H/Q39Y/R42S/S66N/T106N/T262R/W38E/Y61H)
DRB1*0404 = DRB1*0404 (Homo sapiens, UniProt P01903+P01911, A100R/A169T/F76Y/I96L/K127E/L162R/M171V/N62H/P40V/Q125Y/R42H/S133A/S149N/S66Y/V209L/W38E)
DRB1*0901 = DRB1*0901 (Homo sapiens, UniProt P01903+P01911, A100R/A103E/D57H/D86V/F55Y/F60I/F76Y/I96F/K127E/L162R/M171V/P40D/Q125H/Q99R/R33Q/R42F/S133A/S66N/T210M/V115G/W38K/Y107V/Y59G/Y89S); settings: competitive inhibition of radiolabeled standard peptide, read-out: Binding Affinity (nM) DRB1*0901
DRB1*0802 = DRB1*0802 (Homo sapiens, UniProt P01903+P01911, A100R/A103L/A169T/F76Y/H45Y/I96F/K41T/L162R/M171V/P40S/Q125H/Q178H/Q39Y/Q99D/R218S/R42G/S66Y/V115G/W38E)
DRB1*0101 = DRB1*0101 (Homo sapiens, UniProt P01903+P01911, A100R/D57E/F55L/F60I/F76Y/I96L/L162R/M171V/P40L/Q125E/R42F/V115G/Y59C)
DRB1*0405 = DRB1*0405 (Homo sapiens, UniProt P01903+P01911, A100R/A169T/D86S/F76Y/I96L/K127E/L162R/M171V/N62H/P40V/Q125Y/R42H/S133A/S149N/S66Y/V115G/V209L/W38E)
DRB1*0401 = DRB1*0401 (Homo sapiens, UniProt P01903+P01911, A100K/A169T/F76Y/I96L/K127E/L162R/M171V/N62H/P40V/Q125Y/R42H/S133A/S149N/S66Y/V115G/V209L/W38E)
DRB1*1501 = DRB1*1501 (Homo sapiens, UniProt P01903+P01911)
DRB5*0101 = DRB5*0101 (Homo sapiens, UniProt P01903+Q30154)

DRB1*1101, sequence (P01903 26-254, other chains not shown): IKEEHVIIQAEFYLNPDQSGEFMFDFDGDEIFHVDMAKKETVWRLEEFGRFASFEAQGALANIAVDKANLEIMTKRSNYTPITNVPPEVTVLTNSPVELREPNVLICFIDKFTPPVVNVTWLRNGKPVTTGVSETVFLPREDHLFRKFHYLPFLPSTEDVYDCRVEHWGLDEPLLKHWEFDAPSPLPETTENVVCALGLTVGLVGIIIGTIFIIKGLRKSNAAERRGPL
DRB1*1302, sequence (P01903 26-254 limits assumed, other chains not shown): as the sequence (P01903 26-254, other chains not shown) above
DRB1*0301, sequence (P01903 26-254, other chains not shown): as above

Compound: CC[C@H](C)[C@H](NC(=O)[C@H](CC(C)C)NC(=O)[C@H](CCCNC(=N)N)NC(=O)CNC(=O)[C@@H](N)CC(N)=O)C(=O)N[C@H](C(=O)N[C@@H](C)C(=O)N[C@@H](CC(N)=O)C(=O)N1CCC[C@H]1C(=O)N[C@H](C(=O)N[C@H](C(=O)N[C@H](C(=O)N[C@@H](CCCCN)C(=O)N[C@@H](CCCCN)C(=O)N[C@@H](CCC(=O)O)C(=O)O)[C@@H](C)O)C(C)C)C(C)C)[C@@H](C)O [Envelope 346-360]
- IC50 (DRB1*0701): 68 nM
- IC50 (DRB4*0101): 3000 nM
- IC50 (DRB1*1101): 10600 nM
- IC50 (DRB1*1302; '-' distinct from ND): 15 nM
- IC50 (DRB3*0101): 18300 nM
- IC50 (DRB1*0301): 216 nM
- IC50 (DRB1*0404): 15300 nM
- IC50 (DRB1*0901; '-' distinct from ND): 333 nM
- IC50 (DRB1*0802): 288 nM
- IC50 (DRB1*0101): 4.5 nM
- IC50 (DRB1*0405): 6740 nM
- IC50 (DRB1*0401): 343 nM
- IC50 (DRB1*1501): 332 nM

Compound: CC(C)C[C@H](NC(=O)[C@H](C)NC(=O)[C@H](CCC(=O)O)NC(=O)[C@H](Cc1ccccc1)NC(=O)[C@H](CCC(=O)O)NC(=O)[C@H](CC(C)C)NC(=O)[C@H](Cc1ccc(O)cc1)NC(=O)[C@H](CCCNC(=N)N)NC(=O)[C@H](C)NC(=O)CNC(=O)[C@H](CC(C)C)NC(=O)[C@@H](N)Cc1c[nH]c2ccccc12)C(=O)NCC(=O)N[C@@H](Cc1ccccc1)C(=O)N[C@@H](CC(C)C)C(=O)N[C@@H](CC(N)=O)C(=O)N[C@@H](CCC(=O)O)C(=O)O [NS5 477-493]
- IC50 (DRB1*0701): 26 nM
- IC50 (DRB4*0101): 274 nM
- IC50 (DRB1*1101): 710 nM
- IC50 (DRB1*1302; DRB1*1302): 9750 nM
- IC50 (DRB3*0101): 26 nM
- IC50 (DRB1*0301): 2420 nM
- IC50 (DRB1*0404): 124 nM
- IC50 (DRB1*0901; DRB1*0901): 79 nM
- IC50 (DRB1*0802): 2280 nM
- IC50 (DRB1*0101): 12 nM
- IC50 (DRB1*0405): 54 nM
- IC50 (DRB1*0401): 67 nM
- IC50 (DRB1*1501): 338 nM

Compound: CSCC[C@H](NC(=O)[C@@H](NC(=O)[C@H](Cc1ccccc1)NC(=O)[C@H](CCCNC(=N)N)NC(=O)[C@H](CC(N)=O)NC(=O)[C@H](CC(C)C)NC(=O)[C@H](CC(C)C)NC(=O)[C@H](CC(C)C)NC(=O)[C@H](CCCNC(=N)N)NC(=O)[C@H](CO)NC(=O)[C@@H](NC(=O)[C@@H](N)CCSC)C(C)C)[C@@H](C)O)C(=O)N[C@H](C(=O)N[C@@H](Cc1c[nH]cn1)C(=O)N[C@@H](CCCNC(=N)N)C(=O)N[C@@H](CCCNC(=N)N)C(=O)O)[C@@H](C)O [NS5 233-248]
- IC50 (DRB1*0701): 97 nM
- IC50 (DRB4*0101): 617 nM
- IC50 (DRB1*1101): 16 nM
- IC50 (DRB1*1302; DRB1*1302): 34 nM
- IC50 (DRB3*0101): 2240 nM
- IC50 (DRB1*0301): 327 nM
- IC50 (DRB1*0404): 1070 nM
- IC50 (DRB1*0901; DRB1*0901): 569 nM
- IC50 (DRB1*0802): 159 nM
- IC50 (DRB1*0101): 108 nM
- IC50 (DRB1*0405): 699 nM
- IC50 (DRB1*0401): 57 nM
- IC50 (DRB1*1501): 307 nM

Compound: EGKVVQYENLKYTVI [Envelope 126-140]
- IC50 (DRB1*0701): 2310 nM
- IC50 (DRB5*0101): 2470 nM
- IC50 (DRB4*0101): 59 nM
- IC50 (DRB1*1101): 8980 nM
- IC50 (DRB1*1302; '-' distinct from ND): 1480 nM
- IC50 (DRB3*0101): 2070 nM
- IC50 (DRB1*0301): 692 nM
- IC50 (DRB1*0404): 6050 nM
- IC50 (DRB1*0901; '-' distinct from ND): 3860 nM
- IC50 (DRB1*0802): 37 nM
- IC50 (DRB1*0101): 980 nM
- IC50 (DRB1*0405): 90 nM
- IC50 (DRB1*0401): 1380 nM
- IC50 (DRB1*1501): 21 nM

Compound: CC(C)C[C@H](NC(=O)[C@H](C)NC(=O)[C@H](CC(C)C)NC(=O)[C@@H]1CCCN1)C(=O)N[C@@H](CCCCN)C(=O)N[C@@H](CCC(=O)O)C(=O)N[C@@H](Cc1ccccc1)C(=O)N[C@@H](CCCCN)C(=O)N[C@@H](CC(=O)O)C(=O)N[C@@H](Cc1ccccc1)C(=O)N[C@@H](C)C(=O)N[C@@H](C)C(=O)NCC(=O)N[C@@H](CCCNC(=N)N)C(=O)N[C@@H](CCCCN)C(=O)O [NS3 605-619]
- IC50 (DRB1*0701): 3450 nM
- IC50 (DRB5*0101): 20 nM
- IC50 (DRB4*0101): 1360 nM
- IC50 (DRB1*1101): 8890 nM
- IC50 (DRB1*1302; DRB1*1302): 19600 nM
- IC50 (DRB3*0101): 3380 nM
- IC50 (DRB1*0301): 4440 nM
- IC50 (DRB1*0404): 2220 nM
- IC50 (DRB1*0901; DRB1*0901): 9320 nM
- IC50 (DRB1*0802): 37 nM
- IC50 (DRB1*0101): 4350 nM
- IC50 (DRB1*0405): 5550 nM
- IC50 (DRB1*0401): 4730 nM
- IC50 (DRB1*1501): 28 nM

Compound: CC[C@H](C)[C@H](NC(=O)[C@H](Cc1c[nH]c2ccccc12)NC(=O)[C@H](Cc1ccc(O)cc1)NC(=O)CNC(=O)[C@H](CCSC)NC(=O)[C@H](CC(=O)O)NC(=O)[C@H](C)NC(=O)[C@H](Cc1c[nH]cn1)NC(=O)[C@@H](NC(=O)[C@H](C)N)C(C)C)C(=O)N[C@@H](CCC(=O)O)C(=O)N[C@@H](CO)C(=O)N[C@@H](CCC(N)=O)C(=O)N[C@@H](CCCCN)C(=O)N[C@@H](CC(N)=O)C(=O)O [NS1 193-207]
- IC50 (DRB1*0701): 7970 nM
- IC50 (DRB5*0101): 10400 nM
- IC50 (DRB4*0101): 180 nM
- IC50 (DRB1*1101): 13900 nM
- IC50 (DRB1*1302; '-' distinct from ND): 33 nM
- IC50 (DRB3*0101): 24 nM
- IC50 (DRB1*0301): 2590 nM
- IC50 (DRB1*0404): 5810 nM
- IC50 (DRB1*0901; '-' distinct from ND): 9890 nM
- IC50 (DRB1*0802): 12900 nM
- IC50 (DRB1*0101): 1200 nM
- IC50 (DRB1*0405): 3240 nM
- IC50 (DRB1*0401): 3540 nM
- IC50 (DRB1*1501): 6340 nM

Compound: C[C@@H](O)[C@H](NC(=O)[C@H](CO)NC(=O)[C@H](CO)NC(=O)[C@H](Cc1c[nH]cn1)NC(=O)[C@H](CCC(=O)O)NC(=O)[C@H](CCC(=O)O)NC(=O)[C@@H](N)CCCCN)C(=O)N[C@@H](Cc1c[nH]c2ccccc12)C(=O)N[C@@H](Cc1c[nH]cn1)C(=O)N[C@@H](Cc1ccc(O)cc1)C(=O)N[C@@H](CC(=O)O)C(=O)N[C@@H](CC(=O)O)C(=O)N[C@@H](CCC(=O)O)C(=O)N[C@@H](CC(N)=O)C(=O)N1CCC[C@H]1C(=O)N[C@@H](Cc1ccc(O)cc1)C(=O)N[C@@H](CCCCN)C(=O)O [NS5 284-300]
- IC50 (DRB1*0701): 2490 nM
- IC50 (DRB4*0101): 14100 nM
- IC50 (DRB1*1101): 1400 nM
- IC50 (DRB1*1302; DRB1*1302): 2030 nM
- IC50 (DRB3*0101): 17 nM
- IC50 (DRB1*0301): 9.3 nM
- IC50 (DRB1*0404): 18200 nM
- IC50 (DRB1*0901; DRB1*0901): 8140 nM
- IC50 (DRB1*0802): 1540 nM
- IC50 (DRB1*0101): 2100 nM
- IC50 (DRB1*0405): 8690 nM
- IC50 (DRB1*0401): 306 nM
- IC50 (DRB1*1501): 5900 nM

Compound: CC[C@H](C)[C@H](NC(=O)[C@H](CC(N)=O)NC(=O)CNC(=O)[C@@H](NC(=O)CNC(=O)[C@H](CC(N)=O)NC(=O)[C@@H](N)CO)[C@@H](C)O)C(=O)N[C@H](C(=O)N[C@@H](CO)C(=O)N[C@@H](CO)C(=O)N[C@H](C(=O)N[C@@H](CC(N)=O)C(=O)N[C@@H](CCSC)C(=O)N[C@H](C(=O)N[C@@H](CO)C(=O)N[C@@H](CCCNC(=N)N)C(=O)N[C@@H](CC(C)C)C(=O)O)C(C)C)C(C)C)C(C)C [NS5 221-237]
- IC50 (DRB1*0701): 21 nM
- IC50 (DRB4*0101): 60 nM
- IC50 (DRB1*1101): 31 nM
- IC50 (DRB1*1302; DRB1*1302): 65 nM
- IC50 (DRB3*0101): 6300 nM
- IC50 (DRB1*0301): 15 nM
- IC50 (DRB1*0404): 84 nM
- IC50 (DRB1*0901; DRB1*0901): 45 nM
- IC50 (DRB1*0802): 5.8 nM
- IC50 (DRB1*0101): 4 nM
- IC50 (DRB1*0405): 25 nM
- IC50 (DRB1*0401): 1.1 nM
- IC50 (DRB1*1501): 20 nM
